Experimental data published in ChEMBL document CHEMBL1201862, “PubChem BioAssay data set” (2004).
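Values below derive from 48-hour exposures of cells grown in 96-well plates, with endpoints linearly interpolated between the two concentrations bracketing the appropriate inhibition level. GI50 = concentration required for 50% inhibition of growth.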 Calls of active or inactive are those of the source. Rule as the data show it: active = GI50 up to about 1.1 µM and inactive = higher.

Tests used:
Test in all cases: NCI-60 cell line screen, 48 h
MDA-MB-231 = tested on: MDA-MB-231
NCI/ADR-RES = tested on: NCI/ADR-RES
Malme-3M = tested on: Malme-3M
CCRF-CEM = tested on: CCRF-CEM
PC-3 = tested on: PC-3
SNB-19 = tested on: SNB-19
UACC-257 = tested on: UACC-257
NCI-H23 = tested on: NCI-H23
MDA-N = tested on: MDA-N
KM-20L2 = tested on: KM-20L2
SW-620 = tested on: SW-620
T47D = tested on: T47D
LOX IMVI = tested on: LOX IMVI
U-251 = tested on: U-251
DLD-1 = tested on: DLD-1
NCI-H226 = tested on: NCI-H226
NCI-H460 = tested on: NCI-H460
M19-MEL = tested on: M19-MEL
DMS-273 = tested on: DMS-273

Compound: CC1=NN(C(=O)c2ccccc2O)C(=O)/C1=C/c1ccc(O)cc1
- GI50 (MDA-MB-231): 58.9 µM (inactive)
- GI50 (NCI/ADR-RES): 0.519 µM (active)
- GI50 (Malme-3M): 0.431 µM (active)
- GI50 (CCRF-CEM): 1.47 µM (inactive)
- GI50 (PC-3): 0.368 µM (active)
- GI50 (SNB-19): 0.363 µM (active)
- GI50 (UACC-257): 0.658 µM (active)
- GI50 (NCI-H23): 0.568 µM (active)
- GI50 (MDA-N): 0.316 µM (active)
- GI50 (KM-20L2): 36.5 µM (inactive)
- GI50 (SW-620): 2.73 µM (inactive)
- GI50 (T47D): 4.03 µM (inactive)
- GI50 (LOX IMVI): 0.468 µM (active)
- GI50 (U-251): 0.205 µM (active)
- GI50 (DLD-1): 0.151 µM (active)
- GI50 (NCI-H226): 0.475 µM (active)
- GI50 (NCI-H460): 0.255 µM (active)

Compound: C/C(=N\NC(=O)c1ccncc1)c1sc(-n2nc(-c3ccccc3)cc2-c2ccccc2)nc1C
- GI50 (MDA-MB-231): > 63 µM (inactive)
- GI50 (NCI/ADR-RES): > 100 µM (inactive)
- GI50 (Malme-3M): > 56.2 µM (inactive)
- GI50 (CCRF-CEM): > 31.6 µM (inactive)
- GI50 (PC-3): > 31.6 µM (inactive)
- GI50 (SNB-19): > 31.6 µM (inactive)
- GI50 (UACC-257): > 31.6 µM (inactive)
- GI50 (NCI-H23): > 31.6 µM (inactive)
- GI50 (MDA-N): > 100 µM (inactive)
- GI50 (SW-620): > 31.6 µM (inactive)
- GI50 (T47D): 18.5 µM (inactive)
- GI50 (LOX IMVI): > 80.9 µM (inactive)
- GI50 (U-251): > 31.6 µM (inactive)
- GI50 (NCI-H226): > 64.1 µM (inactive)
- GI50 (NCI-H460): > 31.6 µM (inactive)

Compound: Fc1ccc(C(OCCN2CCN(CCCc3ccccc3)CC2)c2ccc(F)cc2)cc1
- GI50 (MDA-MB-231): 3.15 µM (inactive)
- GI50 (NCI/ADR-RES): 3.13 µM (inactive)
- GI50 (Malme-3M): 5.31 µM (inactive)
- GI50 (CCRF-CEM): 4.5 µM (inactive)
- GI50 (PC-3): 3.44 µM (inactive)
- GI50 (SNB-19): 3.99 µM (inactive)
- GI50 (UACC-257): 2.81 µM (inactive)
- GI50 (NCI-H23): 4.04 µM (inactive)
- GI50 (MDA-N): 4.06 µM (inactive)
- GI50 (SW-620): 5.47 µM (inactive)
- GI50 (T47D): 4.9 µM (inactive)
- GI50 (LOX IMVI): 4.65 µM (inactive)
- GI50 (U-251): 3.65 µM (inactive)
- GI50 (NCI-H226): 3.75 µM (inactive)
- GI50 (NCI-H460): 4.34 µM (inactive)

Compound: Cn1c2ccccc2c2ccc3c(c21)C(=O)C(c1ccccc1)=CC3=O
- GI50 (Malme-3M): 21.9 µM (inactive)
- GI50 (CCRF-CEM): 9.62 µM (inactive)
- GI50 (SNB-19): 42.5 µM (inactive)
- GI50 (UACC-257): 32.7 µM (inactive)
- GI50 (NCI-H23): 22.4 µM (inactive)
- GI50 (M19-MEL): 24 µM (inactive)
- GI50 (U-251): 36.8 µM (inactive)
- GI50 (DLD-1): 17.9 µM (inactive)
- GI50 (NCI-H226): 11.7 µM (inactive)
- GI50 (NCI-H460): 9.27 µM (inactive)
- GI50 (DMS-273): 21.5 µM (inactive)

Compound: CC(C)(C)OC(=O)NC(Cc1ccccc1)C(=O)N[C@H]1c2ccsc2/C(=N/O)[C@H]1O (stereo partly drawn)
- GI50 (MDA-MB-231): > 100 µM (inactive)
- GI50 (NCI/ADR-RES): > 100 µM (inactive)
- GI50 (Malme-3M): > 100 µM (inactive)
- GI50 (CCRF-CEM): > 100 µM (inactive)
- GI50 (PC-3): > 100 µM (inactive)
- GI50 (SNB-19): > 100 µM (inactive)
- GI50 (UACC-257): > 100 µM (inactive)
- GI50 (NCI-H23): > 100 µM (inactive)
- GI50 (MDA-N): > 100 µM (inactive)
- GI50 (SW-620): > 100 µM (inactive)
- GI50 (T47D): > 100 µM (inactive)
- GI50 (LOX IMVI): > 100 µM (inactive)
- GI50 (U-251): > 100 µM (inactive)
- GI50 (NCI-H226): > 100 µM (inactive)
- GI50 (NCI-H460): > 100 µM (inactive)

Compound: CCN(CC)CCNC(=O)c1cc2cc(NC(=O)c3cc4cc(NC(=O)c5cc6cc(N)ccc6[nH]5)ccc4[nH]3)ccc2[nH]1
- GI50 (MDA-MB-231): > 100 µM (inactive)
- GI50 (NCI/ADR-RES): > 100 µM (inactive)
- GI50 (Malme-3M): > 100 µM (inactive)
- GI50 (CCRF-CEM): > 100 µM (inactive)
- GI50 (PC-3): > 100 µM (inactive)
- GI50 (SNB-19): > 100 µM (inactive)
- GI50 (UACC-257): > 100 µM (inactive)
- GI50 (NCI-H23): > 100 µM (inactive)
- GI50 (MDA-N): > 100 µM (inactive)
- GI50 (SW-620): > 100 µM (inactive)
- GI50 (T47D): > 100 µM (inactive)
- GI50 (LOX IMVI): > 100 µM (inactive)
- GI50 (U-251): > 100 µM (inactive)
- GI50 (NCI-H226): > 100 µM (inactive)
- GI50 (NCI-H460): > 100 µM (inactive)

Compound: CCOc1cc(C=O)ccc1O [ETHYL VANILLIN]
- GI50 (MDA-MB-231): > 100 µM (inactive)
- GI50 (NCI/ADR-RES): > 100 µM (inactive)
- GI50 (Malme-3M): > 100 µM (inactive)
- GI50 (CCRF-CEM): > 10 µM (inactive)
- GI50 (PC-3): > 100 µM (inactive)
- GI50 (SNB-19): > 100 µM (inactive)
- GI50 (UACC-257): > 100 µM (inactive)
- GI50 (NCI-H23): > 100 µM (inactive)
- GI50 (MDA-N): > 100 µM (inactive)
- GI50 (SW-620): > 100 µM (inactive)
- GI50 (T47D): > 100 µM (inactive)
- GI50 (LOX IMVI): > 100 µM (inactive)
- GI50 (U-251): > 100 µM (inactive)
- GI50 (NCI-H226): > 100 µM (inactive)
- GI50 (NCI-H460): > 100 µM (inactive)
